According to patent US20240315992A1, “AMINOXY ACID-BASED ANTIBACTERIAL COMPOUNDS AND METHODS THEREOF” (The University of Hong Kong, priority 2023, published 2024):
≈ marks a conversion by molar mass, not a printed value.

Legend:
MSSA ATCC 29213 = test: MIC by CLSI broth micro-dilution, MSSA ATCC 29213; type: cell-based; conditions: Staphylococcus aureus, read-out: Minimum inhibitory concentration
Description: (§1) Aminoxy acids were synthesized by the standard peptide coupling procedures. Minimum inhibitory concentration was determined using CLSI broth micro-dilution method in 96-wells microtitre plates. Minimum inhibitory concentration is defined as the lowest concentration of the compound that inhibits visible growth of the bacteria. All experiments were performed three times. 24 compounds including aminoxy acid monomers and dipeptides have been identified to show toxicity against multidrug resistant Staphylococcus aureus Mu3 and summarized in Table 1. The minimum inhibitory concentration of compound 8 and compound 35 on other gram-positive bacteria was also evaluated and summarized in Table 2. […] As shown in FIGS. 3A-3B there are no observable hemolysis for compound 8 and compound 35 towards human red blood cell.
(§2) Bacteria were streaked from the glycerol stock into BHI agar and were incubated overnight. Single colony was picked for the overnight culture in cation-adjusted Mueller Hinton broth (CAMH), LB or BHI. The overnight culture was sub-cultured and regrew to exponential phase for the experiment.
(§3) MIC was determined by CLSI broth micro-dilution method in 96-wells microtitre plates. […] Optical density was recorded by DTX 880 multimode detector (Beckman Coulter, California, US). […]

human red blood cell = test: Hemolysis assay; type: cell-based; conditions: up to the highest concentration 100 μM, 2 hours, 37° C.
Description: FIGS. 3A-3B are diagrams showing the hemolysis ability of compound 8 (FIG. 3A) and compound 35 (FIG. 3B) towards human red blood cell. % Hemolysis were mean±S.D of biological triplicates normalized to 0.1% triton X-100 as positive control.
Citrate-phosphate-dextrose (CPD) human whole blood was obtained from Hong Kong Red Cross. Whole blood was centrifuged in 1000 rpm for 10 minutes to remove the upper plasma layer. The remaining portion was washed by 1×PBS 3 times or until the upper PBS layer was transparent. The upper PBS layer was removed and the lower blood cell layer was diluted into 2% in PBS. 200 μL 2% blood in PBS was then added to round-bottom 96-well plate. Compounds were subsequently added to 96-well plate on 1% DMSO concentration. After incubation in 37° C. for 2 hours, the round-bottom 96-well plate was centrifuged in 1000 rpm for 10 minutes. 50 μL supernatant was transferred to a flat-bottom 96-well plate. Absorbance at 405 nm was then measured by Beckman Coulter DTX 880 Multimode Detector. Biological replicates were performed.

[1] = system: Staphylococcus aureus Mu3; test: Antibacterial effect in combination with calcium channel blockers; type: cell-based; conditions: 12.5 μM compound 8 (4×MIC), dose dependent
Description: (§4) Exponential phase Staphylococcus aureus Mu3 was treated with compound 8 (4×MIC) or combination with calcium channel blocker. Data were representative of mean±S.D. of four individual experiments with error bars. Statistical analysis was performed by one-way ANOVA with Dunnett's post-test to calculate p-values adjusted for multiple comparisons with initial bacteria inoculum as control condition (*p<0.05; **p<0.01; ***p<0.001).
as §4, with “Data” for “Exponential phase Staphylococcus aureus Mu3 was treated with compound 8 (4×MIC) or combination with calcium channel blocker. Data”

[2] = system: L. monocytogenes clinical strain; test: MIC by CLSI broth micro-dilution, L. monocytogenes; type: cell-based; conditions: Listeria monocytogenes, BHI medium, read-out: Minimum inhibitory concentration
Description: as §1, §2, §3

[3] = system: Staphylococcus aureus strain USA300-LAC; test: Non-lethal bacteremia model, bacteria loads in organs; type: in vivo, Balb/c mice; conditions: 10 mg/kg/day intraperitoneal, 4 days
Description: FIG. 9 are the bar graphs showing compound 8 and compound 35 reduce bacteria loads in different organs of the mice infected by Staphylococcus aureus. Grubb's test was performed to test for outliers. Statistical analysis was performed with two-sided paired t test. (*p<0.05).
Staphylococcus aureus strain USA300-LAC were cultured to the early exponential phase of growth, washed twice with sterile phosphate-buffered saline solution (PBS), and resuspended in PBS at 5×10^6 CFU/200 μL for non-lethal bacteremia model. The female Balb/c mice, 6-8 weeks, were infected intravenously (i.v.) through the tail vein with Staphylococcus aureus and randomized into three groups (N=14 for vehicle; N=12 for compound 8 and compound 35 respectively). One hour after infection, mice received intraperitoneal injections of compound 8 or compound 35 (10 mg/kg/day) or an injection of buffer (PBS with 2.5% DMSO and 2% Tween-80) as the control. The compound and injection buffer treatments were performed twice per day at 12-h intervals. The challenged mice were monitored for 4 days, at which point all the remaining mice were sacrificed. The CFU of S. aureus were determined in heart, liver, kidney and lung by plating in series dilution. Grubb's test was performed to test for outliers. Statistical analysis was performed with two-sided paired t test. (*p<0.05).

CC(C)C[C@H](ONC(=O)[C@@H](COCc1ccccc1)ONC(=O)c1cc(C(F)(F)F)cc(C(F)(F)F)c1)C(=O)Nc1ccccc1 [Compound 8]
MIC (MSSA ATCC 29213): 3.13 µM (≈ 2.05 µg/mL) | hemolytic activity on human blood cell (human red blood cell): didn't have observable hemolytic activity | antibacterial effect in combination with calcium channel blocker verapamil or benidipine [1]: calcium channel blockers can antagonize the antibacterial effect | MIC [2]: 6.25 µM (≈ 4.1 µg/mL) | bacteria load in heart [3]: can reduce the bacteria load | bacteria load in lung [3]: can reduce the bacteria load

CC(C)C[C@H](ONC(=O)[C@@H](COCc1ccccc1)ONC(=O)c1cc(C(F)(F)F)cc(C(F)(F)F)c1)C(=O)Nc1ccc2c(c1)OC(F)(F)O2 [Compound 35]
MIC (MSSA ATCC 29213): 1.56 µM (≈ 1.15 µg/mL) | hemolytic activity on human blood cell (human red blood cell): didn't have observable hemolytic activity | MIC [2]: 0.78 µM (≈ 0.574 µg/mL)
